Where two headings read alike, the source gives them in different places.
Legend:
[1] = Acute toxicity, single administration, dogs; conditions: dog, in vivo, sc; Hunde, subkutan; read-out: LD50 (mg/kg) und deren zuverlässige Grenzen P = 0,05
Description: Die Toxizität des erfindungsgemässen Arzneimittels bei der einmaligen Einführung (die akute Toxizität) wurde an geschlechtsreifen Tieren (an Mäusen, Ratten, Katzen, Hunden) bestimmt. Die Analyse der experimentellen Angaben für Mäuse und Ratten wurde nach der Methode der Probit-Analyse nach Litchfield und Wilcoxon, und für Hunde und Katzen nach der Methode der Anreicherung der Frequenz nach Behrens durchgeführt.
Die Toxizitätsparameter LD50 wurden für Mause bei der intraperitonealen und subkutanen Einführung, für Ratten bei der subkutanen, intramuskulären und enteralen Einführung, für Katzen bei der intramuskulären Einführung und für Hunde bei der subkutanen Einführung bestimmt.

[2] = system: kardiovaskuläre System und die Atmung; test: Effect on cardiovascular system, respiration and muscle; assay type: in vivo
[3] = Acute toxicity, single administration, rats; conditions: rat, in vivo, Ratten, read-out: LD50 (mg/kg) und deren zuverlässige Grenzen P = 0,05
Versuchstiere = test: Prolonged administration to test animals (blood, urine); assay type: in vivo
Description: Nur zu einer späteren Beobachtungsperiode (4 bis 9 Tage) wurde eine unbedeutende Erhöhung der Gesamtleukozytenzahl nachgewiesen. Am 3. Tag trat auch eine geringe Aktivierung der Blutcholinesterase auf, in den nachfolgenden Beobachtungstagen (4 bis 9 Tage) überstieg jedoch die Aktivität des Ferments das Ausgangsniveau nicht.
Die morpholigischen Untersuchungen der inneren Organe der Versuchstiere legten keine pathologischen Veränderungen im Vergleich zur Kontrolle an den Tag.

[4] = Content of the drugs in blood and brain after intramuscular administration (Askew method); assay type: in vivo, Ratten; conditions: for concentration at 2 h: 2 St., read-out: Konzentration (µg/g) 2 St. (converted); for concentration at 3 h: 3 St., read-out: Konzentration (µg/g) 3 St.; for concentration at 5 min: read-out: Konzentration (µg/g) 5 min; for concentration at 20 min: read-out: Konzentration (µg/g) 20 min (converted); for concentration at 0.5 h: 30 min, read-out: Konzentration (µg/g) 30 min; for concentration at 1 h: read-out: Konzentration (µg/g) I St.; for concentration at 10 min: IO min, read-out: Konzentration (µg/g) IO min (converted)
Protocol: Mit Hilfe der Methode von Askew (1956) wurde in der Dynamik der Gehalt des erfindungsgemäßen Arzneimittels im Blut und Gehirn der Tiere untersucht. Die Untersuchungen wurden im Vergleich zum bekannten Präparak TMB-4 vorgenommen. Die Geschwindigkeit des Eindringens beider Präparate ins Blut und deren Konzentration wurden bei der-intramuskulären Einführung in Dosen von 20 ..und 50 mg/kg und der Gehirnspiegel - in einer Dosis von 50 mg/kg bestimmt. […]
Es wurde festgestellt, daß die Präparate schnell (nach 5 min) von der Einführungsstelle ins Blut eindringen, dabei wurde unabhängig von der Prüfdosis der Präparate deren Maximalgehalt im Blut 20 min nach der Einführung beobachtet, zwar erhöhte die Vergrößerung der Dosis der Präparate bis 50 mg/kg wesentlich deren Konzentrationsniveau während der ganzen Beobachtungsfrist.
Die im Vergleich zu TMB-4 durchgeführten Untersuchungen haben ergeben, dass während der ersten Stunde der Blutgehalt und das Anwachsen der Konzentrationen beider Präparate gleich waren. […] Die Untersuchungsergebnisse sind in der Tabelle 3 angeführt.
Nach den Ergebnissen der durchgeführten Untersuchungen wurde festgestellt, dass das erfindungsgemässe Arz- neimittel bei der intramuskulären Einführung schnell ins Blut und Gehirn des Tieres eindringt und zum Unterschied von TMB-4 eine längere Zeit im 3lutstrom zirkuliert und von 5 min an bis 4 Stunden Beobachtung im Gehirn in bedeutend grösseren Mengen enthalten ist.

[5] = biological target: T1, Butyrylcholinesterase des Rattengehirns (Rattus norvegicus, UniProt Q9JKC1); test: Histochemical study of butyrylcholinesterase activity in rat brain; assay type: in vivo, Ratten
T1 construct: from tissue; host or cells: rat brain sections (glia, capillaries) after in vivo dosing
Description: Nach den histochemischen Methoden wurde der Einfluss des erfindungsgemässen Arzneimittels auf die Aktivität der Azetyl- und Buty rylcholinesterase des Rattengehirns untersucht und es wurde gezeigt, dass dieser von der Dosis des Arzneimittels und der Einführungszeit abhängt. […] Die Fermenthemmung wird bis 2 Stunden lang beobachtet, nachher folgt eine unbedeutende Aktivierung der Azetylcholinesterase, die bis 24 Stunden aufrechterhalten bleibt.
Es muss hervorgehoben werden, dass die beobachteten Veränderungen der Aktivität des Ferments von keinem deutlich ausgeprägten Charakter sind.

[6] = system: Kranken mit akuten peroralen Vergiftungen mit verschiedenen phosphororganischen Insektiziden; test: Clinical study in patients with acute oral poisoning by organophosphorus insecticides; assay type: in vivo, Menschen
Description: Das erfindungsgemässe Arzneimittel wurde in der Klinik an Kranken mit akuten peroralen Vergiftungen mit verschiedenen phosphororganischen Insektiziden untersucht. Insgesamt wurden 183 Menschen behandelt, die in die Klinik gelangten. Daraus befanden sich 26 Menschen in einer leichten, 48 Kranke - in einer mässigen und 75 Kranke in einer schweren Vergiftungsstufe. Das Alter der Geschädigten schwankte von 15 bis 76 Jahren. Die Zeit des Behandlungsbeginns betrug I bis 12 stunden nach der Einnahme des Insektizids und in 28 Fällen wurde die Behandlung vor der Hospitalisierung begonnen.
Die therapeutische Effektivität des erfindungsgemässen Arzneimittels wurde mit der ähnlichen Wirkung des wirksamsten bekannten Präparats TMB-4 verglichen (insgesamt 50 Menschen) .
Das erfindungsgemässe Arzneimittel wurde in Kombination mit Atropin neben aktiven Methoden der Detoxikation ausgenutzt, die die Giftentfernung aus dem Organismus bezweckten und das Durchwaschen des Magens, die Verordnung von Abführungsmitteln, Siphon- und Abführungsklystieren, die Beschleunigung der Diurese, aktive symptomatische und Erhaltungstherapie, allgemein stärkenden Behandlung, Massnahmen zur Korrektion der Störungen des säurig-alkalischen und wässrigen und Elektrolytzustands einschliessen. […]

[7] = system: Gehirn der Tiere (Ratten); test: Morphological and histochemical examination of the brain; assay type: in vivo; conditions: Dosen 5, 20 und 50 mg/kg; no haemorrhages
Protocol: Der Grad deren Ausgeprägtheit wird etwas höher und länger in den Gehirnstrukturen (3 Tage) bei einer Dosis des erfindungsgemässen Arzneimittels von 50 mg/kg aufrechterhalten, als bei Dosen von 5 und 20 mg/kg. Die Kapillarhyperämie wird durch keine Blutergüsse und Störungen des argyrophilen Gestells der Hirnblutgefässe begleitet. Die morphologische und histochemische Untersuchung des Rattengehirns, denen das erfindungsgemässe Arzneimittel in Dosen von 5, 20 und 50 mg/kg eingeführt wurde, gestattet, die erhaltenen Veränderungen als funktionelle einzuschätzen (die Schwankung der Aktivität der Azetylcholinesterase und der Butyrylcholinesterase, die […] Hyperämie), die von einer deutlichen Neurotropie des Arzneimittels zeugen.

[8] = rat, blood, im, Blut, Dosis 20 mg/kg intramuskulär, Ratten
[9] = rat, blood, im, Blut, Dosis 50 mg/kg intramuskulär, Ratten
[10] = rat, brain, im, Gehirn, Dosis 50 mg/kg intramuskulär, Ratten

T1 sequence (Q9JKC1 24-597): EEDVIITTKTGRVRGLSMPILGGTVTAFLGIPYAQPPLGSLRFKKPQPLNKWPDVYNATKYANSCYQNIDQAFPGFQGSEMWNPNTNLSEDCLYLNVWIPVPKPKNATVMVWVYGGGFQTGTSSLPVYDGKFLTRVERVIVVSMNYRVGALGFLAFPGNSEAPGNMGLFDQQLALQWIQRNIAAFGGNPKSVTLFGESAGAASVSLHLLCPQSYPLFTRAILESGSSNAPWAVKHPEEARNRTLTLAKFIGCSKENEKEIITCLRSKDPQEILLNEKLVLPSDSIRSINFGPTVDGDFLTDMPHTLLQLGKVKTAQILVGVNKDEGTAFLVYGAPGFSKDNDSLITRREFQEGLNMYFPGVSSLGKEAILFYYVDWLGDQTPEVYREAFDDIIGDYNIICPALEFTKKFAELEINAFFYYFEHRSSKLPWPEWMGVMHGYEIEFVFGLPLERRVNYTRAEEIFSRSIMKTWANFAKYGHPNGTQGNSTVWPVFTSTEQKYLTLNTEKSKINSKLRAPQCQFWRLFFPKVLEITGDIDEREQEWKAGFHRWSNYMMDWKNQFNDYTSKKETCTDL

Structure (SMILES): C=CC[n+]1ccccc1C=NO [das erfindungsgemässe Arzneimittel, N-Allyl-2-pyridinaldoxiinbromid]
- LD50 [1]: 112 mg/kg
- myotrope Wirkung ([2]; in vivo): keine myotrope Wirkung
- arterieller Blutdruck ([2]; intravenöse Einführung (12 bis 15 mg/kg)): setzte unbedeutend für eine kürzere Zeit den arteriellen Blutdruck herab
- Einfluss auf das kardiovaskuläre System und die Atmung ([2]; subkutane Einführung in hohen Dosen (10 und 20 mg/kg)): keinen Einfluss
- LD50 ([3]; ip, intraperitoneal): 135 mg/kg
- LD50 ([3]; po, enteral): 260 mg/kg
- LD50 ([3]; sc, subkutan): 200 mg/kg
- Einfluss auf den Bestand des peripheren Bluts (Versuchstiere; dauernde Anwendung, slight rise of leukocytes at 4 bis 9 Tage): keinen merklichen Einfluss
- Harnbestand (Versuchstiere; längere Einführung): veränderte nicht den Harnbestand
- Konzentration (µg/g) I St. ([4]; Blut, Dosis 50 mg/kg intramuskulär, I St., Ratten): IO,I
- Konzentrationsniveau im Blut im Vergleich zu TMB-4 ([4]; late time points (printed: 3 und 1 Stunden)): ungefähr um das Doppelte
- concentration at 2 h [4, 8]: 2.3 µg/g
- concentration at 3 h [4, 8]: 0.92 µg/g
- concentration at 5 min [4, 8]: 2.95 µg/g
- concentration at 20 min [4, 8]: 5.16 µg/g
- concentration at 0.5 h [4, 8]: 4.7 µg/g
- concentration at 1 h ([4]; rat, blood, im, Blut, Dosis 20 mg/kg intramuskulär, I St., Ratten): 4.4 µg/g
- concentration at 10 min [4, 8]: 4.95 µg/g
- concentration at 2 h [4, 9]: 4.6 µg/g
- concentration at 3 h [4, 9]: 3.6 µg/g
- concentration at 5 min [4, 9]: 16.2 µg/g
- concentration at 20 min [4, 9]: 18 µg/g
- concentration at 0.5 h [4, 9]: 12.7 µg/g
- concentration at 10 min [4, 9]: 19 µg/g
- Tmax ([4]; rat, blood, im, intramuskuläre Einführung, summary statement, read-out: Maximalniveau erreicht nach): 20 to 30 min
- concentration at 2 h [4, 10]: 1.12 µg/g
- concentration at 3 h [4, 10]: 0.64 µg/g
- concentration at 5 min [4, 10]: 2.64 µg/g
- concentration at 20 min [4, 10]: 4 µg/g
- concentration at 0.5 h [4, 10]: 3.75 µg/g
- concentration at 1 h ([4]; rat, brain, im, Gehirn, Dosis 50 mg/kg intramuskulär, I St., Ratten): 2.06 µg/g
- concentration at 10 min [4, 10]: 5.65 µg/g
- Aktivität der Butyrylcholinesterase in den Kapillaren aller Bildungen des Gehirns ([5]; bis 2 Tage lang, dose dependent, more marked at 50 mg/kg): unbedeutende Aktivierung des Ferments
- Aktivität der Butyrylcholinesterase in den Nervenkittzellen des Gehirns ([5]; in allen untersuchten Konzentrationen): die Aktivität der Butyrylcholinesterase in den Nervenkittzellen des Gehirns nicht
- Nebenerscheinungen und Kontraindikationen ([6]; Einzeldosis 0,075 g, Kurdosis 0,4 bis 1,6 g): keine Nebenerscheinungen und Kontraindikationen
- Kennziffer der Funktion der Leber und der Stoffwechselprozesse ([6]; Eiweissfraktion, Bilirubin, Transaminasenaktivität, Blutzucker, Elektrolyt- und Gaswechsel): zu deren Normalisierung beiträgt
- Histochemische Untersuchungen des Gehirns [7]: allgemeine unbedeutende Kapillarhyperämie

— patent publication EP0364584A1, “ANTIDOTE FOR ORGANIC PHOSPHORUS COMPOUND POISONING” (priority 1988, dated 1989)
